Data: PubChem BioAssay (NCI)
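Each compound was tested at five concentrations against cells in 96-well plates for 48 hours. The concentration for 50% growth inhibition is given as GI50. Definition used: TGI = concentration required for complete inhibition of growth.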

Key:
Assay in all cases: inhibition of tumour cell growth, NCI panel, 48 h
MOLT-4 leukemia = test system: MOLT-4 leukemia
MCF7 breast = test system: MCF7 breast
BT-549 breast = test system: BT-549 breast
ACHN renal = test system: ACHN renal
HOP-92 NSCLC = test system: HOP-92 NSCLC
OVCAR-4 ovarian = test system: OVCAR-4 ovarian
SW-620 colon = test system: SW-620 colon
OVCAR-3 ovarian = test system: OVCAR-3 ovarian
SN12C renal = test system: SN12C renal
OVCAR-5 ovarian = test system: OVCAR-5 ovarian

SMILES | TGI (MOLT-4 leukemia) [µM] | TGI (MCF7 breast) [µM] | TGI (BT-549 breast) [µM] | TGI (ACHN renal) [µM] | TGI (HOP-92 NSCLC) [µM] | TGI (OVCAR-4 ovarian) [µM] | TGI (SW-620 colon) [µM] | GI50 (MOLT-4 leukemia) [µM] | GI50 (MCF7 breast) [µM] | GI50 (ACHN renal) [µM] | GI50 (HOP-92 NSCLC) [µM] | GI50 (OVCAR-3 ovarian) [µM] | TGI (OVCAR-3 ovarian) [µM] | GI50 (SN12C renal) [µM] | TGI (SN12C renal) [µM] | GI50 (OVCAR-4 ovarian) [µM] | GI50 (SW-620 colon) [µM] | GI50 (OVCAR-5 ovarian) [µM] | TGI (OVCAR-5 ovarian) [µM]
CC1=NN(c2nc(N)nc(CF)n2)C(C)(C)C1 | > 100 | > 100 | > 100 | > 100 | > 100 | > 100 | > 100 | – | – | – | – | – | – | – | – | – | – | – | –
COc1ccc(-c2nn(-c3ccc(NC(=O)Nc4ccc(Cl)c(C(F)(F)F)c4)cc3)cc2-c2ccncc2)cc1Cl | 6.75 | 4.54 | – | 5.27 | 3.84 | 21.9 | 4.4 | 1.7 | 1.7 | 1.6 | 1.14 | 1.67 | 6.14 | 2.23 | 8.69 | 1.98 | 1.93 | 1.88 | 5.96
NC(CSSCC(N)Cc1ccccc1)Cc1ccccc1 (configuration not stated) | > 100 | – | – | > 100 | – | > 100 | > 100 | – | – | – | – | – | > 100 | – | > 100 | – | – | – | > 100
O=C(CSc1nc2ccccc2c(=O)n1-c1ccccc1)N=Nc1c(O)[nH]c2ccc(F)cc12 | 3.43 | 4.3 | – | – | 4.17 | 4.34 | 15.2 | – | – | – | – | – | 3.91 | – | – | – | – | – | 4.73
COC(=O)C(NC(=O)c1ccccc1)C(c1ccc(Cl)cc1)P(=O)(OC)OC (configuration not stated) | > 100 | – | – | > 100 | > 100 | > 100 | > 100 | – | – | – | – | – | – | – | > 100 | – | – | – | > 100
OC(CC(O)(C(F)(F)F)C(F)(F)F)c1ccc(C(O)CC(O)(C(F)(F)F)C(F)(F)F)cc1 (configuration not stated) | 35.8 | – | – | 27.6 | 25.9 | 29.8 | 35.8 | – | – | – | – | – | 18.2 | – | – | – | – | – | 31.1
CCC[C@@H]1C(=O)N=C(N)N1C(=O)OCc1ccccc1 | > 100 | > 100 | > 100 | > 100 | – | > 100 | > 100 | – | – | – | – | – | > 100 | – | > 100 | – | – | – | > 100
C=CC(C)(C)C(=C)C(=O)Nc1ccccc1I | – | > 100 | – | > 100 | > 100 | > 100 | > 100 | – | – | – | – | – | > 100 | – | > 100 | – | – | – | > 100
C=C(c1ccccc1)c1ccccc1-c1cc(-c2ccccc2)cc(-c2ccccc2)n1 | > 100 | > 100 | – | > 100 | > 100 | – | > 100 | – | – | – | – | – | > 100 | – | > 100 | – | – | – | > 100
COC1OC2=CCC3C(=O)NC(=O)C3C2[C@H](OCc2ccccc2)C1OCc1ccccc1 (some centres not stated) | – | – | – | 34.8 | 4.15 | 5.32 | 2.95 | – | – | – | – | – | 3.1 | – | 3.14 | – | – | – | 29.1
Cc1ccc(NC(=O)CSC(N)=O)cc1C | > 100 | > 100 | – | > 100 | > 100 | > 100 | > 100 | – | – | – | – | – | > 100 | – | > 100 | – | – | – | > 100
CCOC(=O)N1CCC(=C2c3ccc(Cl)cc3CCc3cccnc32)CC1 | 33.3 | 23.8 | – | 15.8 | 24.2 | 17.1 | 34.6 | – | – | – | – | – | 22.5 | – | 24.4 | – | – | – | 37.9
N#CC(C#N)=C1C(=O)NC(N)=C1C#N | > 100 | > 100 | > 100 | > 100 | > 100 | > 100 | > 100 | – | – | – | – | – | – | – | > 100 | – | – | – | > 100
COc1cc(Br)c(CC2C3=C(CCN2C(=O)C2CCC2)CC(=O)CC3)cc1O (configuration not stated) | > 100 | – | – | 86.9 | 53.6 | – | > 100 | – | – | – | – | – | 57 | – | > 100 | – | – | – | > 100
CN(Cc1cc(Cl)c(Cl)cc1NC(=O)CN)[C@H]1CCCC[C@@H]1N1CCCC1 | > 100 | > 100 | – | > 100 | > 100 | > 100 | > 100 | – | – | – | – | – | > 100 | – | > 100 | – | – | – | > 100
CCCC(=O)[O-].N.N.N.N.N.[Co+3].[O-][Cl+3]([O-])([O-])[O-] | > 100 | – | – | > 100 | > 100 | > 100 | > 100 | – | – | – | – | – | > 100 | – | > 100 | – | – | – | > 100
COc1ccc(Sc2ccccc2N)cc1 | > 100 | – | – | > 100 | 74.4 | > 100 | > 100 | – | – | – | – | – | > 100 | – | > 100 | – | – | – | > 100
Oc1ccc(Cl)cc1C1=NC(/N=C\c2ccccc2)=NC(c2ccccc2)C1 (configuration not stated) | > 100 | > 100 | > 100 | – | > 100 | – | > 100 | – | – | – | – | – | > 100 | – | > 100 | – | – | – | > 100
